Source: US10131652B2, “Pyrimidinyloxy benzene derivatives as herbicides” (E. I. DU PONT DE NEMOURS AND COMPANY, priority 2014, dated 2018)
Read-outs that look alike come from different tables or passages of the source.

What was measured:
Assay type in all cases: in vivo
[1] = system: morningglory (Ipomoea spp.); assay: Test B pre-/postemergence plant response; details: Ipomoea, 240 h, read-out: Plant response rating, Morningglory; for pest or weed control at 125 g/ha: 125 g ai/ha; for pest or weed control at 500 g/ha: 500 g ai/ha
Summary of the method: (§1)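 Steps: plant seeds in loam soil–sand mix; spray soil preemergence, and in parallel spray 2–10 cm one- to two-leaf plants postemergence; hold ~10 days in greenhouse; visually rate injury against untreated controls (0 = no effect, 100 = complete control).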

[2] = system: velvetleaf (Abutilon theophrasti); assay: Test B pre-/postemergence plant response; details: Abutilon theophrasti, 240 h, read-out: Plant response rating, Velvetleaf; for pest or weed control at 125 g/ha: 125 g ai/ha; for pest or weed control at 500 g/ha: 500 g ai/ha
Summary of the method: as §1

[3] = system: large (Lg) crabgrass (Digitaria sanguinalis); assay: Test B pre-/postemergence plant response; details: Digitaria sanguinalis, 240 h, read-out: Plant response rating, Crabgrass, Large; for pest or weed control at 125 g/ha: 125 g ai/ha; for pest or weed control at 500 g/ha: 500 g ai/ha
Summary of the method: as §1

[4] = system: green foxtail (Setaria viridis); assay: Test F pre-/postemergence plant response; details: Setaria viridis, pre-emergence, scale 0 to 100, read-out: Plant response rating, Foxtail, Green
Summary of the method: (§2)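 Visual control ratings were scored 0 (no effect) to 100 (complete control) versus untreated plants after 14–21 greenhouse days. Compounds, formulated in a surfactant-containing non-phytotoxic solvent, were applied both to silt loam at planting (preemergence) and to 1- to 4-leaf plants 2–18 cm tall (postemergence).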

corn (Zea mays) = assay: Test F pre-/postemergence plant response; details: Zea mays, scale 0 to 100
Summary of the method: as §2

[5] = system: Brazilian crabgrass (Digitaria horizontalis); assay: Test F pre-/postemergence plant response; details: Digitaria horizontalis, scale 0 to 100, read-out: Plant response rating, Crabgrass, Brazil
Summary of the method: as §2

[6] = system: ragweed (common ragweed, Ambrosia elatior); assay: Test F pre-/postemergence plant response; details: Ambrosia artemisiifolia, pre-emergence, scale 0 to 100, read-out: Plant response rating, Ragweed
Summary of the method: as §2

[7] = system: fall panicum (Panicum dichotomiflorum); assay: Test F pre-/postemergence plant response; details: Panicum dichotomiflorum, scale 0 to 100, read-out: Plant response rating, Panicum, Fall
Summary of the method: as §2

[8] = system: morningglory (Ipomoea coccinea); assay: Test F pre-/postemergence plant response; details: Ipomoea, pre-emergence, scale 0 to 100, read-out: Plant response rating, Morningglory
Summary of the method: as §2

[9] = system: lambsquarters (Chenopodium album); assay: Test F pre-/postemergence plant response; details: Chenopodium album, pre-emergence, scale 0 to 100, read-out: Plant response rating, Lambsquarters
Summary of the method: as §2

[10] = post-emergence, postemergence, 0 to 100 scale, 0 no effect, 100 complete control
[11] = post-emergence, Postemergence, 0 to 100 scale (0 no effect, 100 complete control)
[12] = pre-emergence, Preemergence, 0 to 100 scale where 0 is no effect and 100 is complete control
[13] = post-emergence, 8 g ai/ha Postemergence
[14] = post-emergence, 16 g ai/ha Postemergence
[15] = post-emergence, 31 g ai/ha Postemergence
[16] = post-emergence, 62 g ai/ha Postemergence
[17] = post-emergence, 125 g ai/ha Postemergence
[18] = pre-emergence, 8 g ai/ha Preemergence
[19] = pre-emergence, 16 g ai/ha Preemergence
[20] = pre-emergence, 31 g ai/ha Preemergence
[21] = pre-emergence, 62 g ai/ha Preemergence
[22] = pre-emergence, 125 g ai/ha Preemergence

SMILES: FC(F)c1cc(-c2ccccc2Oc2ncc(Br)cn2)no1 [Compound 62, 5-bromo-2-[2-[5-(difluoromethyl)-3-isoxazolyl]phenoxy]pyrimidine]
- pest or weed control at 125 g/ha [1, 10]: 90%
- pest or weed control at 500 g/ha [1, 11]: 100%
- pest or weed control at 125 g/ha [1, 12]: 60%
- pest or weed control at 500 g/ha [1, 12]: 90%
- pest or weed control at 125 g/ha [2, 10]: 100%
- pest or weed control at 500 g/ha [2, 11]: 100%
- pest or weed control at 125 g/ha [2, 12]: 90%
- pest or weed control at 500 g/ha [2, 12]: 100%
- pest or weed control at 125 g/ha [3, 10]: 70%
- pest or weed control at 500 g/ha [3, 11]: 90%
- pest or weed control at 125 g/ha [3, 12]: 100%
- pest or weed control at 500 g/ha [3, 12]: 100%
- pest or weed control at 8 g/ha ([4]; 8 g ai/ha Preemergence): 0%
- pest or weed control at 16 g/ha ([4]; 16 g ai/ha, Preemergence): 0%
- pest or weed control at 31 g/ha ([4]; 31 g ai/ha, Preemergence): 10%
- pest or weed control at 125 g/ha ([4]; 125 g ai/ha, Preemergence): 90%
- pest or weed control at 62 g/ha ([4]; Preemergence): 40%
- Corn plant response rating (crop injury, 0 = no effect, 100 = complete kill) at 8 g/ha (corn (Zea mays); [13]): 0%
- Corn plant response rating (crop injury, 0 = no effect, 100 = complete kill) at 16 g/ha (corn (Zea mays); [14]): 0%
- Corn plant response rating (crop injury, 0 = no effect, 100 = complete kill) at 31 g/ha (corn (Zea mays); [15]): 0%
- Corn plant response rating (crop injury, 0 = no effect, 100 = complete kill) at 62 g/ha (corn (Zea mays); [16]): 5%
- Corn plant response rating (crop injury, 0 = no effect, 100 = complete kill) at 125 g/ha (corn (Zea mays); [17]): 10%
- Corn plant response rating (crop injury, 0 = no effect, 100 = complete kill) at 8 g/ha (corn (Zea mays); [18]): 0%
- Corn plant response rating (crop injury, 0 = no effect, 100 = complete kill) at 16 g/ha (corn (Zea mays); [19]): 0%
- Corn plant response rating (crop injury, 0 = no effect, 100 = complete kill) at 31 g/ha (corn (Zea mays); [20]): 0%
- Corn plant response rating (crop injury, 0 = no effect, 100 = complete kill) at 62 g/ha (corn (Zea mays); [21]): 0%
- Corn plant response rating (crop injury, 0 = no effect, 100 = complete kill) at 125 g/ha (corn (Zea mays); [22]): 0%
- pest or weed control at 8 g/ha [5, 13]: 0%
- pest or weed control at 16 g/ha [5, 14]: 0%
- pest or weed control at 31 g/ha [5, 15]: 10%
- pest or weed control at 62 g/ha [5, 16]: 15%
- pest or weed control at 125 g/ha [5, 17]: 10%
- pest or weed control at 8 g/ha [5, 18]: 0%
- pest or weed control at 16 g/ha [5, 19]: 0%
- pest or weed control at 31 g/ha [5, 20]: 75%
- pest or weed control at 62 g/ha [5, 21]: 100%
- pest or weed control at 125 g/ha [5, 22]: 100%
- pest or weed control at 8 g/ha ([6]; 8 g ai/ha Preemergence): 0%
- pest or weed control at 16 g/ha ([6]; 16 g ai/ha Preemergence): 20%
- pest or weed control at 31 g/ha ([6]; 31 g ai/ha Preemergence): 25%
- pest or weed control at 125 g/ha ([6]; 125 g ai/ha Preemergence): 35%
- pest or weed control at 62 g/ha ([6]; Preemergence): 40%
- pest or weed control at 8 g/ha [7, 13]: 0%
- pest or weed control at 16 g/ha [7, 14]: 0%
- pest or weed control at 31 g/ha [7, 15]: 5%
- pest or weed control at 62 g/ha [7, 16]: 10%
- pest or weed control at 125 g/ha [7, 17]: 60%
- pest or weed control at 8 g/ha [7, 18]: 0%
- pest or weed control at 16 g/ha [7, 19]: 0%
- pest or weed control at 31 g/ha [7, 20]: 0%
- pest or weed control at 125 g/ha [7, 22]: 100%
- pest or weed control at 62 g/ha ([7]; pre-emergence, Preemergence): 95%
- pest or weed control at 8 g/ha ([8]; 8 g ai/ha Preemergence): 0%
- pest or weed control at 16 g/ha ([8]; 16 g ai/ha Preemergence): 0%
- pest or weed control at 31 g/ha ([8]; 31 g ai/ha Preemergence): 0%
- pest or weed control at 125 g/ha ([8]; 125 g ai/ha Preemergence): 50%
- pest or weed control at 62 g/ha ([8]; Preemergence): 0%
- pest or weed control at 8 g/ha ([9]; 8 g ai/ha Preemergence): 70%
- pest or weed control at 16 g/ha ([9]; 16 g ai/ha, Preemergence): 90%
- pest or weed control at 31 g/ha ([9]; 31 g ai/ha, Preemergence): 95%
- pest or weed control at 125 g/ha ([9]; 125 g ai/ha, Preemergence): 100%
- pest or weed control at 62 g/ha ([9]; Preemergence): 95%
